US11517754B2 (priority 2017, dated 2022)

Legend:
[1] = test system: catecholaminergic fibers projecting to pancreatic LN; parameters: species or system tdTomatoTH-Cre mice
[2] = test system: OVA-specific CD8+ TCR transgenic T-cells; experiment: Pancreatic auto-antigen cross-presentation: proliferation of adoptively transferred OVA-specific CD8+ T cells in RIP-OVA mice under PNES; assay type: in vivo, RIP-OVA transgenic mice; settings: PNES 450 μA, 10 Hz, 2 mn, 3 times/day; FIG. 3C

Compound	Field Action Potentials (FAP) peak amplitude after addition of TTX to the medium [1]	Effect of PNES on auto-antigen cross-presentation (T cell proliferation relative to sham) in mice treated with propranolol [2]
NC1=N[C@H](O)[C@H]2[C@H]3O[C@]4(O)O[C@@H]([C@@H](O)[C@@]2(N1)[C@@H]4O)[C@]3(O)CO [tetrodotoxin]	inhibited	–
CC(C)NCC(O)COc1cccc2ccccc12 (centres unmarked) [propranolol]	–	β-AR-dependent
